According to US20160000750A1, “COMBINATION OF EGCG OR METHYLATED EGCG AND A PDE INHIBITOR” (KYUSHU UNIVERSITY, NATIONAL UNIVERSITY CORPORATION, priority 2010, published 2016):

Tested on: Toll-like receptor (TLR) 2
Assay: TLR2 expression in RAW 264.7 by Western blotting
Assay type: cell-based, mouse
Conditions: vardenafil 5 μM, EGCG 10 μM added after 3 hours, 24 hours, untreated = 100
Experimental: A mouse macrophage cell line, RAW 264.7, was seeded in a 5-mL dish at 1×10^5 cells/mL and was pre-cultured in a DMEM medium supplemented with 1% FCS for 24 hours. Subsequently, vardenafil was added thereto at a concentration of 5 μM. After 3 hours, EGCG was added thereto at a concentration of 0 μM or 10 μM. After 24 hours, the cells were collected, and the expressions of Toll-like receptor (TLR) 2 and TLR 4 were measured by Western blotting.

## (−)-epigallocatechin-3-O-gallate [EGCG]
  TLR2 expression level(%): 90%
